Consider 3 substances from patent publication US6498243B1, “Epimorphin antagonist and process for producing it” (Sumitomo Electric Industries, Ltd., priority 1996, dated 2002).

Holding throughout (type): cell-based
Assay [1] deals with morphogenetic action of epimorphin on a pulmonary primordium. Briefly: Inhibitory action on morphogenesis of bronchus, organ culture of pulmonary primordium. To be noted: 0.35 mg/ml in DH medium; ICR mouse fetal pulmonary primordium (12 days of gestation); 3 days of culture; 5% CO2 at 37° C. As to the method:
A pulmonary primordium was removed from the fetus of the ICR pregnant mouse (Nippon Charles River, 12 days of gestation) under a stereoscopic microscope. The pulmonary primordium taken was placed on Nuclepore membrane filter (SN 110419) floated on a culture medium (DH medium, or 0.35 mg/ml polypeptide A-containing DH medium). Organ culture was performed in 5% CO2 at 37° C. to investigate the effect of polypeptide A on the morphogenesis of the bronchus. […] This manner of inhibition of morphogenesis was exactly the same as in treatment with MC-1, i.e., antibodies inhibiting the function of epimorphin.

For assay [2], the system named is cell strain C3H/10T1/2clone8. Briefly: Cell adhesion to coated dishes (O.D. at 260 nm of bound cells). The note with it: one hour; for cell adhesion compared with modified epimorphins: coated dishes, C3H/10T1/2clone8 cells; for O.D. at 260 nm (number of the cells bound to the dishes, indicator of cell adhesion): specimen coated on suspension culture dishes, C3H/10T1/2clone8 cells in DH medium with 20 mg/ml bovine serum albumin, control (untreated) 0.0194. The source says:
The polypeptides A, B and C of the present invention obtained in Example 1, and the modified epimorphins (fragment (123) and fragment (2), each having the same cell adhesion capacity as that of natural type epimorphin) were coated on suspension culture medium dishes. After drying, the dishes were washed once with 8M urea/lysis buffer. Then, the dishes were washed 5 times with PBS^−, and the cell strain C3H/10T1/2clone8 (Dainippon Pharmaceutical Co., Ltd., 08-226) was sprinkled on the dishes using D-MEM/F-12 culture medium (GIBCO BRL, 12400-024; hereinafter called “DH medium”) containing 20 mg/ml bovine serum albumin (SIGMA, A-7030). One hour later, the dishes were washed 3 times with PBS^−, and then the cells were collected using 0.5N NaOH. The O.D. at 260 nm was measured to determine the number of the cells bound to the dishes. The cell count was used as an indicator of the cell adhesion of each specimen. The O.D.'s found were 1.5237 for polypeptide A, 1.4251 for polypeptide B, 1.4697 for polypeptide C, 1.4959 for fragment (123), 1.4478 for fragment (2), and 0.0194 for control (untreated).

In assay [3] the test system is hair follicle morphogenetic action of epimorphin on a maxillary skin. Description: Inhibitory action on morphogenesis of maxillary skin (hair follicle), organ culture. To be noted: 0.35 mg/ml in DH medium; ICR mouse fetal maxillary skin (13 days of gestation); 3 days of culture; 5% CO2 at 37° C. The method, then: A maxillary skin was removed from the fetus of the ICR pregnant mouse (Nippon Charles River, 13 days of gestation) under a stereoscopic microscope. The maxillary skin taken was placed on Nuclepore membrane filter (SN 110419) floated on a culture medium (DH medium, or 0.35 mg/ml polypeptide A-containing DH medium). Organ culture was performed in 5% CO2 at 37° C. to investigate the effect of polypeptide A on the morphogenesis of the hair follicle. […] This manner of inhibition of morphogenesis was exactly the same as in treatment with MC-1, i.e., antibodies inhibiting the function of epimorphin.

In the case of “polypeptide A: 19 amino acids, 1st (N-terminal) to 19th of the functional domain (SEQ ID NO: 8) of natural type mouse epimorphin, chemically synthesized (NGNRTSVDLRIRRTQHSVL; listed as Mus musculus)”, in assay [1], the “morphogenesis of the bronchus” value was “markedly inhibited”. In addition, in assay [2], the “cell adhesion compared with modified epimorphins” value is listed as “cell adhesion comparable to that of the modified epimorphins” and the “O.D. at 260 nm (number of the cells bound to the dishes, indicator of cell adhesion)” value turned out to be 1.5237. The “morphogenesis of hair follicles” value in assay [3] is given as “markedly inhibited”.
In the case of “polypeptide B: 39 amino acids, 1st (N-terminal) to 39th of the functional domain (SEQ ID NO: 8) of natural type mouse epimorphin (NGNRTSVDLRIRRTQHSVLSRKFVDVMAEYNEAQILFRE; listed as Mus musculus)”, in assay [2], the “cell adhesion compared with modified epimorphins” value is reported as “cell adhesion comparable to that of the modified epimorphins” and the “O.D. at 260 nm (number of the cells bound to the dishes, indicator of cell adhesion)” value was found to be 1.4251.
Taken in the same sequence, the figures for “polypeptide C: 41 amino acids, 1st (N-terminal) to 41st of the functional domain (SEQ ID NO: 8) of natural type mouse epimorphin (NGNRTSVDLRIRRTQHSVLSRKFVDVMAEYNEAQILFRERS; listed as Mus musculus)” were “cell adhesion comparable to that of the modified epimorphins” and 1.4697.
